# Assay results: PubChem BioAssay AID1418 (Emory University Molecular Libraries Screening Center, 2008)
# Several values for one entry are separate records, joined by “and”; a condition that tells them apart may be missing. Equal entries are not always repeated. Activity calls are given as the source filed them. How the calls were made is not given here.
# Biological target: Induced myeloid leukemia cell differentiation protein Mcl-1 (Homo sapiens) (UniProt Q07820)
# Assay: blockers of Bid binding to Mcl-1 – biochemical, TR-FRET, dose response (AID 1418)
# Details: Mcl-1/Bid peptide binding, TR-FRET (europium/Dy647), 2 hr
# Induced myeloid leukemia cell differentiation protein Mcl-1 (Homo sapiens), sequence (Q07820 whole entry, looked up): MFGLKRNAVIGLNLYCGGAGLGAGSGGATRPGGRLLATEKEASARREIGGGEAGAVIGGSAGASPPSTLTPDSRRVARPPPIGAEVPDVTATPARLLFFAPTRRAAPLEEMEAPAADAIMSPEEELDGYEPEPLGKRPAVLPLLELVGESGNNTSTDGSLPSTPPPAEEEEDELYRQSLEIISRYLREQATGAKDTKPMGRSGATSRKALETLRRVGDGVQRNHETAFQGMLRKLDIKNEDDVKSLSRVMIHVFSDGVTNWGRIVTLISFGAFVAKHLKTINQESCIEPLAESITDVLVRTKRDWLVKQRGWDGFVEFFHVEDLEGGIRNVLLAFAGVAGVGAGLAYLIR
row,Structure (SMILES),IC50
1,COc1cccc(OC)c1C(=O)N1CCN(c2ccccn2)CC1,> 54 µM (inactive)
2,Cc1ccc(Cl)c(OCCCN(C)Cc2ccccc2)c1,> 54 µM (inactive)
3,CCOc1ccc2nc(N3C(=O)/C(=C/c4ccc(Cl)cc4)NC3=S)sc2c1,2.43 µM
4,COc1ccc(Cc2nnc(NC(=O)Cc3cccs3)s2)cc1OC,> 54 µM (inactive)
5,CC1CCCC(C)N1CCNC(=O)C1CCN(S(=O)(=O)N2CCCCC2)CC1 (stereo not given),> 54 µM (inactive)
6,Cc1ccc2oc(C(F)(F)C(F)F)cc(=O)c2c1,inactive
7,COc1cccc(OC)c1C(=O)N1CCN(Cc2ccncc2)CC1,> 54 µM (inactive)
8,CCCCN1C(=O)/C(=C/C=C/c2ccco2)C(=O)NC1=S,8.35 µM
9,CCOc1ccc(N2C(=O)c3cccnc3C2Nc2ccc(F)cc2)cc1 (stereo not given),> 54 µM (inactive)
10,Cc1ccccc1NCC(=O)N/N=C/C(Br)=C/c1ccccc1,> 54 µM (inactive)
11,CC(=O)Oc1ccc(Cl)cc1/C=C/c1ccc2ccccc2n1,> 54 µM (inactive)
12,C=CC(c1ccccc1)C(C(=O)c1ccccc1)N(C)C (stereo not given),> 54 µM (inactive)
13,Cc1occc1C(=O)NNC(=O)Nc1ccc([N+](=O)[O-])cc1,> 54 µM (inactive)
14,COc1ccc(NC(=O)CN2C(=O)/C(=C3\SC(=S)N(C4CCS(=O)(=O)C4)C3=O)c3ccccc32)cc1 (stereo not given),0.72 µM
15,CCOc1ccccc1NC(=O)CN(C)S(=O)(=O)c1cccc2nsnc12,> 54 µM (inactive)
16,CC1=NN(c2ccccc2)C(=O)/C1=C\c1cn(-c2ccccc2)nc1C,> 54 µM (inactive)
17,Cc1ccc(N=Nc2c(N)[nH]n3c(=O)cc(-c4ccccc4)nc23)cc1,inactive
18,Cc1ccc(NC(=O)c2ccc3ncsc3c2)cc1S(=O)(=O)N(C)C,inactive
19,Cc1c(N=Nc2c(-c3ccc([N+](=O)[O-])cc3)[nH]n(C(N)=S)c2=O)cccc1[N+](=O)[O-],2.92 µM
20,Cc1[nH]n2c(=O)c3c(nc2c1-c1ccc(F)cc1)CCCC3,> 54 µM (inactive)
21,COc1cc2cc3c(N)c(C(=O)Nc4sc(C)c(C)c4C#N)sc3nc2cc1OC,0.97 µM
22,Cc1cc2c(C(C)C)c(O)c(O)c(C=O)c2c(O)c1-c1c(C)cc2c(C(C)C)c(O)c(O)c(C=O)c2c1O,1.17 µM and 0.86 µM
23,COC(=O)c1ccccc1S(=O)(=O)N1CCn2cccc2C1C (stereo not given),> 54 µM (inactive)
24,O=C(CCCN1C(=O)c2ccccc2C1=O)NCCCn1ccnc1,> 54 µM (inactive)

row,Structure (SMILES),IC50
1,O=[N+]([O-])c1cccc(S(=O)(=O)Nc2nc3ccccc3nc2Nc2cccc(S(=O)(=O)N3CCCCC3)c2)c1,inactive
2,COc1ccc(C2c3c(C)nn(-c4ccccc4)c3NC(=O)N2c2ccccc2)cc1 (stereo not given),> 54 µM (inactive)
3,COc1cc(S(=O)(=O)Nc2cccc(C)c2)ccc1NC(=O)c1ccncc1,> 54 µM (inactive)
4,CCSc1nnc(NC(=O)C(Cc2ccccc2)n2cccc2)s1 (stereo not given),> 54 µM (inactive)
5,O=C(Nc1ccc2oc(=O)ccc2c1)c1ccc(-c2cccc([N+](=O)[O-])c2)o1,0.65 µM
6,Nc1ccc(C(=O)N/N=C\c2cc(N=Nc3cccc4ccccc34)ccc2O)cc1,12 µM
7,Cc1ccc([N+](=O)[O-])cc1-c1ccc(/C=C(\C#N)c2[nH]nc(N)c2C#N)o1,3.74 µM
8,O=C(CSc1nnc(SCc2ccc(Cl)cc2)s1)N/N=C/c1c[nH]c2ccccc12,0.44 µM
9,CC1=NOC(=O)/C1=C\c1ccc(-c2ccc(Cl)cc2Cl)o1,1.94 µM
10,Nc1ccccc1Nc1ccccc1,> 54 µM (inactive)
11,Cc1cc(NC(=O)c2noc3c2CCc2ccccc2-3)no1,> 54 µM (inactive)
12,C#CCOCCOCCOCCNc1nc(N2CCN(C(=O)[C@H](CCCCN)n3cc(C(N)[C@H](C)CC)nn3)CC2)nc(N2CCN(C(=O)[C@H](CCC(=O)O)n3cc(C(N)[C@H](C)CC)nn3)CC2)n1 (stereo not given in full),1.93 µM
13,Oc1cc2c(cc1C(c1ccc(Cl)c(Cl)c1)N1CCCC1)OCO2 (stereo not given),0.59 µM
14,CCCc1cc(=O)[nH]c(SCC(=O)c2c(C)[nH]c3ccccc23)n1,> 54 µM (inactive)
15,O=C(O)CCCCCN1C(=O)/C(=C\c2cn(-c3ccccc3)nc2-c2cccs2)SC1=S,9.29 µM
16,CN(C)S(=O)(=O)c1cccc(NC(=O)c2cc3c(=O)n4ccccc4nc3s2)c1,> 54 µM (inactive)
17,CCc1ccc2c(CN(CC)Cc3nc4ccccc4c(=O)[nH]3)cc(=O)oc2c1,> 54 µM (inactive)
18,COc1ccc2[nH]c3c(c2c1)CCn1c-3nc2sc(C(=O)Nc3ccccc3)c(C)c2c1=O,1.89 µM
19,Cc1ccc(C)c(C(=O)COC(=O)CCCC(=O)Nc2cc(C(F)(F)F)ccc2Cl)c1,> 54 µM (inactive)
20,CC(C)(C)CC(=O)O/N=C(\N)c1ccncc1,> 54 µM (inactive)
21,CNC(=S)Nc1cc(C)ccc1OC(F)F,> 54 µM (inactive)
22,COc1ccccc1NS(=O)(=O)c1cccc(NC(=O)C2CC(=O)N(Cc3ccccc3)C2)c1 (stereo not given),> 54 µM (inactive)
23,COc1ccc(N2C(=O)/C(=C/C=C/c3ccccc3[N+](=O)[O-])C(=O)NC2=S)cc1,1.05 µM
24,CNC(=O)C(=O)NCCN1CCN(C(=O)c2ccc([N+](=O)[O-])cc2)CC1,> 54 µM (inactive)

row,Structure (SMILES),IC50
1,COC(=O)C(Cc1csc2ccc(Cl)cc12)NC(=O)c1ccc(Cl)cc1 (stereo not given),> 54 µM (inactive)
2,COc1ccc(N2CCN(C(=O)c3ccc4c(c3)OCO4)CC2)cc1,> 54 µM (inactive)
3,CCOC(=O)c1c(-c2ccco2)csc1NC(=O)CSc1nnc(N)s1,> 54 µM (inactive)
4,Cc1csc(NC(=O)C2CCN(S(=O)(=O)c3cccs3)CC2)n1,> 54 µM (inactive)
5,Cc1ccc(-c2nc(SCC(=O)Nc3ccccc3OC(F)F)c3c(C)c(C(=O)O)sc3n2)cc1,> 54 µM (inactive)
6,c1ccc(Oc2nc3ccccc3n3cccc23)cc1,> 54 µM (inactive)
7,CC1=C(C#N)C(=O)NC(=O)/C1=C\c1ccc(-c2cc(C)c(C)cc2[N+](=O)[O-])o1,1.16 µM
8,CCOC(=O)c1nc(C)sc1-c1ccnn1S(=O)(=O)c1ccc(C)cc1,> 54 µM (inactive)
9,COC(=O)c1cc(OC)c(OC)cc1NCC(=O)Nc1ccc(C)cc1,> 54 µM (inactive)
10,O=C(N/N=C/c1ccncc1)c1cccc(S(=O)(=O)Nc2ccc(Cl)cc2)c1,2.24 µM
11,COc1cccc(-c2csc(N3CCN(C(=S)Nc4cccc(Cl)c4)CC3)n2)c1,> 54 µM (inactive)
12,O=c1c2ccccc2nc(CSc2nnnn2-c2ccccc2)n1-c1ccccc1,18.7 µM
13,COc1ccccc1NC(=O)c1cn(C)c(=O)c2cc(OC)c(OC)cc12,> 54 µM (inactive)
14,O=C(/C=C/c1cccc([N+](=O)[O-])c1)Nc1ccc(NC(=O)c2cccs2)cc1,10.6 µM
15,CN1CCN2c3ccc(N)cc3CC3(C(=O)NC(=O)NC3=O)C2C1 (stereo not given),0.48 µM
16,N#C/C(=C1/CCCCCN1)c1nc2ccccc2s1,> 54 µM (inactive)
17,COc1ccc(-c2nc(-n3c(C)c(C(C)=O)c(C(C)=O)c3C)sc2C)cc1,> 54 µM (inactive)
18,CCCOc1cccc(CN2CCCCC2c2cccnc2)c1 (stereo not given),> 54 µM (inactive)
19,Cc1ccc([N+](=O)[O-])cc1N=Nc1c(-c2ccc([N+](=O)[O-])cc2)[nH]n(C(N)=S)c1=O,2.22 µM
20,COc1ccc(OC(=O)c2ccncc2)cc1,> 54 µM (inactive)
21,O=C(O)c1ccc(NS(=O)(=O)c2cccc3nsnc23)cc1,> 54 µM (inactive)
22,CCOc1ccc(N=C2NC(=O)S/C2=C\c2ccc(O)cc2)cc1,0.84 µM
